According to US9803021B2 (The Regents of the University of California, priority 2012, dated 2017):
“Also recorded” adds a separate entry of the source.

What was measured:
Assay type in all cases: cell-based, human
IRF-4 in U266 = assay: Western blot of IRF-4; settings: U266, 1 nM, 2 days
Experimental: Cells were lysed using RIPA buffer (50 mM Tris HCl pH 8, 150 mM NaCl, 1% NP-40, 0.5% sodium deoxycholate, 0.1% SDS) containing a protease inhibitor cocktail (Roche Applied Science, Indianapolis, Ind.). The cytosolic fractions were reduced with β-mercaptoethanol and separated by SDS-PAGE. Following transfer to nitrocellulose membrane (Whatman, Piscataway, N.J.) and blocking, samples were incubated with the following primary rabbit antibodies: anti-IRF4 (Epitomics, Berlingham, Calif.), anti-glyceraldehyde-3-phosphate dehydrogenase (GAPDH; Sigma), anti-ppRb Ser807/811 (Santa Cruz Biotechnology, Santa Cruz, Calif.), anti-cyclin D (Millipore, Billerica, Mass.), or anti-β tubulin (Abcam, Cambridge, Mass.). Secondary anti-rabbit IgG-HRP (GE Healthcare, Billerica, Mass.) was used and the blots were developed using enhanced chemiluminescence (ECL; Thermo Scientific, Waltham, Mass.).
Cells were lysed using RIPA buffer (50 mM Tris-HCl pH 8, 150 mM NaCl, 1% NP-40, 0.5% sodium deoxycholate, 0.1% SDS) containing a protease inhibitor cocktail (Roche Applied Science). The cytosolic fractions were reduced with β-mercaptoethanol and separated by SDS PAGE. […] Films were imaged using a Multilmage™ Light Cabinet (Alpha Innotech Corp.) and analyzed using NIH Image J. Bands were normalized to a GAPDH loading control and expressed as percentage band intensity of untreated cells.

8226/S = assay: Apoptosis assay (Annexin V / PI flow cytometry)
Experimental: (§1) Cells were analyzed by flow cytometry using FlowJo software.
(§2) Cells were stained with Alexa Fluor 488-labeled Annexin V and propidium iodide (PI) using the Vybrant Apoptosis Kit #2 (Molecular Probes) as per manufacturer's instructions and analyzed by flow cytometry.

OCI-My5 = assay: Apoptosis assay (Annexin V / PI flow cytometry); settings: 3 days; for induction of apoptosis, result in words: OCI-My5, 500 pM (also 1 nM)
Experimental: as §1, §2

ANBL-6 = assay: Apoptosis assay (Annexin V / PI flow cytometry)
Experimental: as §1, §2

## anti-CD138-IFNα: Fusion protein: murine B-B4 anti-CD138 variable regions, human IgG1κ constant regions, human IFNα2 fused to the antibody C-terminus via SGGGGS linker
IRF-4 in U266
  IRF-4 expression (Western blot): decrease was similar
8226/S
  Mode of Action of anti-CD138-IFNα fusion: Apoptosis
OCI-My5; OCI-My5, 5 pM
  induction of apoptosis at low concentration, result in words: able to induce apoptosis
OCI-My5
  induction of apoptosis, result in words: did not induce apoptosis; also recorded: did not cause apoptosis or blocks to cell cycle progression
OCI-My5; listed as anti-CD138-IFNα2
  induction of apoptosis, result in words: caused apoptosis
ANBL-6; ANBL-6
  Mode of Action of anti-CD138-IFNα fusion: Apoptosis
ANBL-6; ANBL-6, 1 pM, 3 days
  induction of apoptosis at low concentration, result in words: did not cause apoptosis
ANBL-6; ANBL-6, 500 pM, 3 days, listed as anti-CD138-IFNα2
  induction of apoptosis, result in words: caused apoptosis
